Consider six molecules from patent publication US11472831B2, “Isotopically labeled bile acid derivatives” (Intercept Pharmaceuticals, Inc., priority 2017, dated 2022).

A short description of data set [1]: Clinical study Part 2: mass balance recovery of radioactivity in urine and feces after 25 mg oral [14C]-OCA. The data set is classed as in vivo, human. Here is the method:
Part 2 also evaluated the extent of distribution of total radioactivity into blood cells, and identified metabolites accounting for more than 10% of circulating total radioactivity. The mean cumulative recovery (cumulative % Ae (Amount excreted)) of radioactivity in the urine and feces of subjects receiving oral [^14C]-OCA is shown in FIG. 18. […] The majority of drug-related material in the feces was recovered within 552 hours of dosing with investigational product. In Part 2 (Mass Balance), the mass balance data confirmed that the primary elimination route of OCA is through the feces. A mean of 87% of administered radioactivity was recovered from the feces over the entire collection period, and a minor percentage (<3%) was recovered from the urine.

The nature of data set [2]: Clinical study Part 1, Regimen B: IV plasma PK of 100 μg microtracer dose of [14C]-OCA. The data set is classed as in vivo, human. Here is the method: The objectives of this study were to determine the absolute bioavailability of OCA, and evaluate the absorption, distribution, metabolism, and excretion of OCA in healthy male subjects. […] Mean plasma concentrations of total radioactivity are shown in FIG. 12, and of [^14C]-OCA in FIG. 13. The highest concentration of radioactivity in plasma was measured after completion of the IV dose, and the concentrations of OCA declined rapidly within 4 hours. After the initial decline, a low-level, prolonged profile of OCA and total radioactivity was observed, as expected due to enterohepatic recirculation.

The conditions of data set [3]: rat; single oral administration of [14C] OCA.
From the text: Preclinical mass balance and radiolabeled single dose PK studies in the rat have examined biliary, urinary, and fecal excretion of OCA and its metabolites.
The conditions of data set [4]: statement, no data shown; cited from earlier work.
Data set [5] can be described thus: Clinical study Part 2, Regimen C: plasma PK and metabolite profile after 25 mg oral dose of [14C]-OCA. The data set is classed as in vivo, human. The conditions noted are these: for AUC0-t / Cmax / tmax: plasma; for AUC0-t / Cmax: mean (SD); for circulating OCA metabolites other than glyco-OCA and tauro-OCA: metabolite profiling of radioactivity, mass spectrometry, authentic standards. An excerpt:
Part 2 also evaluated the extent of distribution of total radioactivity into blood cells, and identified metabolites accounting for more than 10% of circulating total radioactivity. The concentrations of total radioactivity and total OCA in plasma over time are shown in FIG. 16 (Note: Total OCA calculated as sum of OCA, glyco-OCA, and tauro-OCA concentrations at each time point, glyco-OCA, and tauro-OCA concentrations at each time point expressed as mass equivalents of OCA) and FIG. 17 (Note: Total OCA calculated as sum of OCA, glyco-OCA, and tauro-OCA concentrations at each time point, glyco-OCA, and tauro-OCA concentrations at each time point expressed as mass equivalents of OCA. Units for total radioactivity are mass equivalent to OCA (i.e. ng-eq OCA/mL)). […] Two additional OCA metabolites were identified: OCA-3 glucuronide and OCA-24 glucuronide, based on the metabolite profiling of radioactivity, mass spectrometry, and authentic standards for the glucuronide metabolites. […] Following Cmax, OCA concentration declined rapidly within the first 4 hours. The maximum exposure of total OCA, including the conjugates, occurred after meals, consistent with gallbladder release and enterohepatic recirculation, leading to exposure levels being observed over the approximately 4-week sampling period.

A short description of data set [6]: Clinical study Part 1, Regimen A: oral plasma PK and absolute bioavailability of 25 mg OCA tablet. The data set is classed as in vivo, human. The method, then:
The objectives of this study were to determine the absolute bioavailability of OCA, and evaluate the absorption, distribution, metabolism, and excretion of OCA in healthy male subjects. In addition, the oral pharmacokinetics (PK) of OCA and carbon-14 ([^14C]-OCA, and intravenous (IV) PK of [^14C]-OCA were evaluated.
The PK objectives of Part 1 were to determine the absolute bioavailability of OCA, to define the intravenous (IV) PK of a microtracer dose of [14C] OCA, and to evaluate the oral PK of OCA. In Part 1, subjects were administered the oral dose (Regimen A: 25 mg OCA tablet), followed by the IV microtracer dose (Regimen B: 100 μg [14C]-OCA) 1 hour 45 minutes after the oral dose administration. The 15 minute IV infusion ended at the estimated tmax for the oral dose (2 hours).
To evaluate the oral PK, plasma concentrations of OCA and its conjugates were measured following an oral dose (Regimen A: 25 mg OCA). OCA was rapidly absorbed; the median tmax was 0.5 hrs. Following Cmax, OCA concentration declined rapidly within 4 hours, consistent with the IV profile of OCA. Subsequent OCA concentrations remained, on average, less than 10% of Cmax up to 72 hours post-dose. A prolonged profile of OCA was observed over the course of 72 hours (FIG. 4). This low level persistence of parent OCA is most likely due to deconjugation of glyco-OCA and tauro-OCA by commensal bacteria in the ileum and colon, followed by reabsorption of OCA.
Mean (SD) plasma concentrations over time of total OCA (the sum of OCA, glyco-OCA, and tauro-OCA) are presented in FIG. 15 (Note: Total OCA calculated as sum of OCA, glyco-OCA, and tauro-OCA concentrations at each time point, glyco-OCA, and tauro-OCA concentrations at each time point expressed as mass equivalents of OCA). Consistent with the [^14C]-OCA results, the maximum exposure of total OCA occurred after a meal, consistent with gallbladder release and enterohepatic recirculation, leading to exposure levels being observed up to 72 hours post-dose. Based on overall exposure of total OCA (AUC0-t), glyco-OCA and tauro-OCA are the primary components of exposure, with minimal contribution (less than 10%) from the parent (OCA).
Absolute bioavailability was determined by the ratio of dose normalized AUC for oral dose/dose normalized AUC for IV dose. […] This relatively low value for bioavailability is consistent with the efficient uptake typical of bile acids into the liver, the primary site of action of OCA. PK results were as expected for a bile acid. OCA is rapidly absorbed in the intestine and taken up in the liver, where it is conjugated with glycine and taurine. Glyco-OCA and tauro-OCA were the primary components of exposure, with minimal contribution from the parent (OCA). Enterohepatic recirculation produced an extended profile, with maximum exposure occurring after meals.

Data set [7] deals with T1, farnesoid X receptor (FXR) (Homo sapiens, UniProt Q96RI1).
T1 sequence (Q96RI1 1-486): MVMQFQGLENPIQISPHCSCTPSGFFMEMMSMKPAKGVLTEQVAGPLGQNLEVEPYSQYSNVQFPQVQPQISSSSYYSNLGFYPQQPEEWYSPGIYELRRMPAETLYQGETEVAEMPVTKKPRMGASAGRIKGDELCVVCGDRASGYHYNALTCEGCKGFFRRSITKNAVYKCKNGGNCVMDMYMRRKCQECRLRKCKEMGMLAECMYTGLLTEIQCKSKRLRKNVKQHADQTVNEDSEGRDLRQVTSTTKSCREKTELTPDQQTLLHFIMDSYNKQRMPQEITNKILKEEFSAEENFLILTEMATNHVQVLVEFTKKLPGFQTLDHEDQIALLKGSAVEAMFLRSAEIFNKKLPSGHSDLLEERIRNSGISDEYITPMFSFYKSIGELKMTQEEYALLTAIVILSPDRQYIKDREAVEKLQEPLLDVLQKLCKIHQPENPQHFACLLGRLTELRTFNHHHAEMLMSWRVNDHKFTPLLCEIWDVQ
The conditions noted are these: background statement; cited from earlier work.

The mark [8] stands for this setting: by 504 hours postdose, single oral 25 mg [14C]-OCA.
[9] abbreviates: over the entire collection period.
Setting [10] is: male, human, plasma [14C]-OCA, 15 minute IV infusion of 100 μg [14C]-OCA, mean (SD), N = 5.
Where [11] appears, read: 25 mg oral dose of [14C]-OCA, N = 8.
The mark [12] stands for this setting: 25 mg oral dose of [14C]-OCA, median and range, N = 8.
Setting [13] is: plasma, single oral dose 25 mg OCA tablet, mean (SD), N = 5.
Where [14] appears, read: plasma, single oral dose 25 mg OCA tablet, median and range, N = 5.

Usually clearance stands for the rate of elimination divided by the concentration. As for `CC[C@H]1[C@@H](O)C2C3CC[C@H]([C@H](C)CCC(=O)O)[C@@]3(C)CCC2[C@@]2(C)CC[C@@H](O)C[C@@H]12` (some centres unmarked) [[^14C]-OCA, [^14C]OCA], the “total radioactivity administered recovered from feces, mean” value in data set [1] (at 1152 hours) is listed as 87.0%. For the same molecule, in data set [1] (setting [8]), the “radioactivity recovered from feces, average” value was 72.3%; the “total radioactivity administered recovered from urine and feces, mean” value came to 75.1%. In addition, in data set [1] (setting [9]), the “administered radioactivity recovered from the feces, mean” value came out at 87% and the “administered radioactivity recovered from the urine” value is under 3%. The “total radioactivity recovered from the urine, average” value in data set [1] (single oral 25 mg [14C]-OCA) is on record as 2.83%. In addition, in data set [2] (15 minute IV infusion of 100 μg [14C]-OCA, mean (SD), N = 5), the “Vs (volume of distribution)” value is on record as 618 (341.9) L. In addition, in data set [2] (male, human, plasma, 15 minute IV infusion of 100 μg [14C]-OCA, mean (SD), N = 5, read-out: CL (total plasma clearance) (converted)), the clearance was 417 mL/min. Moreover, in data set [2] (male, human, plasma, 15 minute IV infusion of 100 μg [14C]-OCA, mean (SD), N = 5, read-out: Vss (volume of distribution at steady state)), the Vd was found to be 210 L. Besides, in data set [2] (setting [10]), the AUC0-t came out at 0.00386 µg·h/mL and the Cmax stood at 0.00971 µg/mL. For the same molecule, the “AUC0-t of [14C]-OCA as share of the total radioactive exposure” value in data set [2] (over 72 hours, IV 100 μg [14C]-OCA) was “approximately 20%”. Also, the “route of excretion of radioactivity” value in data set [3] is “excreted mainly in the feces”.

For the molecule `CC[C@H]1[C@@H](O)[C@@H]2[C@H](CC[C@]3(C)[C@@H]([C@H](C)CCC(=O)NCC(=O)O)CC[C@@H]23)[C@@]2(C)CC[C@@H](O)C[C@@H]12` [Glyco-OCA], the “pharmacological action compared with parent drug (OCA)” value in data set [4] was “equipotent”. The AUC0-t in data set [5] (setting [11]) is given as 4690 (2232) ^ hours*ng/mL; in data set [6] (setting [13]), 1540 (480.7) hours*ng/mL. The figures for the Cmax in data set [5] (setting [11]) and in data set [6] (setting [13]) were 73.8 (39.96) ng/mL and 57.4 (24.43) ng/mL, respectively. Further, the tmax is 10.0 (3.00, 36.0) h in data set [5] (setting [12]) and 8.000 (2.00, 36.00) h in data set [6] (setting [14]).

In general, bioavailability refers to the share of a dose that reaches the circulation, judged against a reference dose that is usually intravenous. For `CC[C@H]1[C@@H](O)[C@@H]2[C@H](CC[C@]3(C)[C@@H]([C@H](C)CCC(=O)O)CC[C@@H]23)[C@@]2(C)CC[C@@H](O)C[C@@H]12` [OCA, 3α,7α-dihydroxy-6α-ethyl-5β-cholan-24-oic acid], the “FXR activity” value in data set [7] is recorded as “highly potent FXR modulator”. The tmax in data set [5] (male, human, 25 mg oral [14C]-OCA, read-out: median tmax) is 75 min; in data set [5] (setting [12]), 1.25 (0.750, 2.50) h; in data set [6] (male, human, plasma, oral 25 mg OCA, read-out: median tmax), 30 min; in data set [6] (setting [14]), 0.500 (0.50, 2.03) h. Besides, the AUC0-t in data set [5] (male, human, 25 mg oral dose of [14C]-OCA, N = 8, read-out: AUC0-t) amounted to 0.475 µg·h/mL; in data set [6] (male, human, plasma, single oral dose 25 mg OCA tablet, mean (SD), N = 5, read-out: AUC0-t) it was 0.144 µg·h/mL. The Cmax in data set [5] (male, human, 25 mg oral dose of [14C]-OCA, N = 8, read-out: Cmax) is 0.0637 µg/mL; in data set [6] (male, human, plasma, single oral dose 25 mg OCA tablet, mean (SD), N = 5, read-out: Cmax), 0.0809 µg/mL. Moreover, the bioavailability in data set [6] (male, human, plasma, oral, 25 mg, ratio of dose normalized AUC oral 25 mg OCA / IV 100 μg [14C]-OCA, mean (SD), N = 5, read-out: F (absolute bioavailability)) was about 17%. Besides, the “subsequent OCA plasma concentrations relative to Cmax” value in data set [6] (on average, after the decline within 4 hours, up to 72 hours post-dose, oral 25 mg OCA) was “less than 10%”. The “contribution of parent to overall exposure of total OCA (AUC0-t)” value in data set [6] (oral 25 mg OCA) is reported as “less than 10%”.

As for `CC[C@H]1[C@@H](O)[C@@H]2[C@H](CC[C@]3(C)[C@@H]([C@H](C)CCC(=O)NCCS(=O)(=O)O)CC[C@@H]23)[C@@]2(C)CC[C@@H](O)C[C@@H]12` [Tauro-OCA], the “pharmacological action compared with parent drug (OCA)” value in data set [4] is “equipotent”. In addition, the AUC0-t is reported as 2550 (2155) ^ hours*ng/mL in data set [5] (setting [11]) and 624 (159.6) hours*ng/mL in data set [6] (setting [13]). The Cmax is given as 24.4 (14.21) ng/mL in data set [5] (setting [11]) and 23.1 (7.412) ^ ng/mL in data set [6] (setting [13]). In addition, the tmax in data set [5] (setting [12]) is 9.03 (2.50, 36.0) h; in data set [6] (setting [14]), 36.000 (2.00, 60.00) h.

Turning to `CC[C@H]1[C@@H](O)C2C3CC[C@H]([C@H](C)CCC(=O)O)[C@@]3(C)CCC2[C@@]2(C)CC[C@@H](O[C@@H]3O[C@H](C(=O)O)[C@@H](O)[C@H](O)[C@H]3O)C[C@@H]12` (some centres unmarked) [OCA-3 glucuronide, OCA-3-O-Glucuronide], the “circulating OCA metabolites other than glyco-OCA and tauro-OCA” value in data set [5] was “identified”.

In the case of `CC[C@H]1[C@@H](O)[C@H]2C3CC[C@H]([C@H](C)CCC(=O)O[C@@H]4O[C@H](C(=O)O)[C@@H](O)[C@H](O)[C@H]4O)[C@@]3(C)CC[C@@H]2[C@@]2(C)CC[C@@H](O)C[C@@H]12` (some centres unmarked) [OCA-24 glucuronide], in data set [5], the “circulating OCA metabolites other than glyco-OCA and tauro-OCA” value is reported as “identified”.
